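Assay format: 96-well plates, 48-hour exposure. The concentration for 50% growth inhibition is given as GI50.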 Calls of active or inactive are those of the source. No stated cut-off is given here; in the data, active = GI50 up to about 1.1 µM and inactive = higher.
Experiments:
Test in all cases: NCI-60 cell line screen, 48 h
HCT-15 = test system: HCT-15
MDA-MB-435 = test system: MDA-MB-435
DU-145 = test system: DU-145
EKVX = test system: EKVX
RPMI-8226 = test system: RPMI-8226
SNB-75 = test system: SNB-75
MDA-MB-231 = test system: MDA-MB-231
NCI-H23 = test system: NCI-H23
SW-620 = test system: SW-620
Malme-3M = test system: Malme-3M
COLO 205 = test system: COLO 205
IGROV-1 = test system: IGROV-1
RXF 393 = test system: RXF 393
SN12C = test system: SN12C
UACC-257 = test system: UACC-257
HCT-116 = test system: HCT-116
NCI-H226 = test system: NCI-H226
TK-10 = test system: TK-10
HL-60 = test system: HL-60
SF-268 = test system: SF-268

SMILES | GI50 (HCT-15) [µM] | GI50 (MDA-MB-435) | GI50 (DU-145) | GI50 (EKVX) | GI50 (RPMI-8226) | GI50 (SNB-75) | GI50 (MDA-MB-231) | GI50 (NCI-H23) | GI50 (SW-620) | GI50 (Malme-3M) | GI50 (COLO 205) | GI50 (IGROV-1) | GI50 (RXF 393) | GI50 (SN12C) | GI50 (UACC-257) | GI50 (HCT-116) | GI50 (NCI-H226) | GI50 (TK-10) | GI50 (HL-60) | GI50 (SF-268)
c1ccc2c(c1)[nH]c1c3ccccc3sc21 | > 100 | 99.1 µM (inactive) | > 100 µM (inactive) | 26.4 µM (inactive) | > 100 µM (inactive) | 8.41 µM (inactive) | > 100 µM (inactive) | > 100 µM (inactive) | > 100 µM (inactive) | > 100 µM (inactive) | > 100 µM (inactive) | > 100 µM (inactive) | 26.5 µM (inactive) | > 100 µM (inactive) | 36.5 µM (inactive) | 82.6 µM (inactive) | > 100 µM (inactive) | > 100 µM (inactive) | > 100 µM (inactive) | > 100 µM (inactive)
COc1cc(C2CC(C)(O)Oc3cc4c(cc32)OCO4)cc(OC)c1OC (stereo not drawn) | 0.521 | 0.169 µM (active) | 0.546 µM (active) | 5.36 µM (inactive) | 0.325 µM (active) |  | 0.252 µM (active) | 0.474 µM (active) | 0.33 µM (active) | 0.205 µM (active) | 0.419 µM (active) | 0.668 µM (active) | 0.137 µM (active) | 0.977 µM (active) | 0.822 µM (active) | 0.449 µM (active) | 0.891 µM (active) | 61 µM (inactive) | 0.247 µM (active) | 0.962 µM (active)
NC(=S)NNCC(=O)CC(O)(C(F)(F)F)C(F)(F)Cl (stereo not drawn) | > 100 | > 100 µM (inactive) | > 100 µM (inactive) | > 100 µM (inactive) | > 100 µM (inactive) | 29.6 µM (inactive) | > 100 µM (inactive) | > 100 µM (inactive) | > 100 µM (inactive) | > 100 µM (inactive) | > 100 µM (inactive) | > 100 µM (inactive) | 38.5 µM (inactive) |  | > 100 µM (inactive) | > 100 µM (inactive) | > 100 µM (inactive) | > 100 µM (inactive) | 97.3 µM (inactive) | 
CCN(CC)CCN1C=CC(C)C(C(=O)O)C1C(N)=O (stereo not drawn) | > 100 | > 100 µM (inactive) | > 100 µM (inactive) | > 100 µM (inactive) | > 100 µM (inactive) | > 100 µM (inactive) | > 100 µM (inactive) | > 100 µM (inactive) | > 100 µM (inactive) |  | > 100 µM (inactive) | > 100 µM (inactive) | > 100 µM (inactive) | > 100 µM (inactive) | > 100 µM (inactive) | > 100 µM (inactive) | > 100 µM (inactive) | > 100 µM (inactive) | > 100 µM (inactive) | > 100 µM (inactive)
C/C(=N\NC(=S)N1CCN(c2ccccn2)CC1)c1nccs1 | 0.071 | 0.521 µM (active) | 0.29 µM (active) | 0.12 µM (active) | 0.01 µM (active) | 2.82 µM (inactive) | 0.022 µM (active) | 0.438 µM (active) | 0.279 µM (active) | 3.82 µM (inactive) | < 0.0248 µM (active) | 0.228 µM (active) | 3.72 µM (inactive) | 1.2 µM (inactive) | 0.214 µM (active) | < 0.0441 µM (active) | 0.955 µM (active) | 1.91 µM (inactive) | 0.01 µM (active) | 0.794 µM (active)
CC(SC(=S)N1CCCCC1)C(=O)Nc1nnc(-c2ccc(Cl)cc2)o1 (stereo not drawn) | 13 | 34.1 µM (inactive) | 32.1 µM (inactive) |  | 20.2 µM (inactive) | 20.1 µM (inactive) | 26.7 µM (inactive) | 42.1 µM (inactive) | 36.2 µM (inactive) | 19.1 µM (inactive) | 34.9 µM (inactive) | 32 µM (inactive) | 31.6 µM (inactive) | 17.5 µM (inactive) | 37.5 µM (inactive) | 17.7 µM (inactive) | 38.5 µM (inactive) | 50.6 µM (inactive) | 0.575 µM (active) | 17.5 µM (inactive)
O=c1c2cc([N+](=O)[O-])ccc2[nH]n1Cc1ccccn1 | > 100 | > 100 µM (inactive) | > 100 µM (inactive) | > 100 µM (inactive) | > 100 µM (inactive) | > 100 µM (inactive) | > 100 µM (inactive) | > 100 µM (inactive) | > 100 µM (inactive) | > 100 µM (inactive) | > 100 µM (inactive) | > 100 µM (inactive) | > 100 µM (inactive) | > 100 µM (inactive) | > 100 µM (inactive) | > 100 µM (inactive) | > 100 µM (inactive) | > 100 µM (inactive) | > 100 µM (inactive) | > 100 µM (inactive)
CC(CCN)(CCN)[N+](=O)[O-] | > 100 | > 100 µM (inactive) | > 100 µM (inactive) | > 100 µM (inactive) | > 100 µM (inactive) | > 100 µM (inactive) | > 100 µM (inactive) | > 100 µM (inactive) | > 100 µM (inactive) | > 100 µM (inactive) | > 100 µM (inactive) | > 100 µM (inactive) | > 100 µM (inactive) | 77.3 µM (inactive) | > 100 µM (inactive) | > 100 µM (inactive) | > 100 µM (inactive) | > 100 µM (inactive) | > 100 µM (inactive) | > 100 µM (inactive)
N#CC1=C(N)N(/N=C/c2ccco2)C(c2ccco2)C1(C#N)C#N (stereo not drawn) | 15.3 | 21.3 µM (inactive) | 17.7 µM (inactive) | 19.5 µM (inactive) | 20.8 µM (inactive) | 16.8 µM (inactive) | 19.5 µM (inactive) | 19.6 µM (inactive) | 11.2 µM (inactive) | 18.9 µM (inactive) | 14.2 µM (inactive) | 14.6 µM (inactive) | 10.7 µM (inactive) | 26.9 µM (inactive) | 16.3 µM (inactive) | 12.7 µM (inactive) | 18.6 µM (inactive) | 17.4 µM (inactive) | 3.35 µM (inactive) | 24.6 µM (inactive)
O=C(O)C/C=C/CC(=O)O | > 100 | > 100 µM (inactive) | > 100 µM (inactive) | > 100 µM (inactive) | > 100 µM (inactive) | > 100 µM (inactive) | > 100 µM (inactive) | > 100 µM (inactive) | > 100 µM (inactive) | > 100 µM (inactive) | > 100 µM (inactive) | > 100 µM (inactive) | > 100 µM (inactive) | 25.7 µM (inactive) | > 100 µM (inactive) | > 100 µM (inactive) | > 100 µM (inactive) | > 100 µM (inactive) | > 100 µM (inactive) | > 100 µM (inactive)
CCOC(=O)c1nc2ccc(C(F)(F)F)cc2nc1Nc1cc(OC)c(OC)c(OC)c1 | > 100 | > 100 µM (inactive) | > 100 µM (inactive) | > 100 µM (inactive) | > 100 µM (inactive) | > 100 µM (inactive) | > 100 µM (inactive) | > 100 µM (inactive) | > 100 µM (inactive) | > 100 µM (inactive) | > 100 µM (inactive) | > 100 µM (inactive) | > 100 µM (inactive) | > 100 µM (inactive) | > 100 µM (inactive) | > 100 µM (inactive) |  | > 100 µM (inactive) | > 100 µM (inactive) | > 100 µM (inactive)
Cc1nc2ccc(F)cc2c2c1CCS2 | > 100 | 35.8 µM (inactive) | > 100 µM (inactive) | 26.2 µM (inactive) | 38.8 µM (inactive) | 38.6 µM (inactive) | 39.9 µM (inactive) | > 100 µM (inactive) | > 100 µM (inactive) | 84.5 µM (inactive) | 38.5 µM (inactive) | > 100 µM (inactive) | 18.5 µM (inactive) |  | 71.9 µM (inactive) | 46.6 µM (inactive) |  | 54.5 µM (inactive) | 24 µM (inactive) | 40.6 µM (inactive)
CCCCCc1cc2cc3c(c(O)c2c(=O)[nH]1)C1(CCC3)C(=O)c2c(O)c3c(c(O)c2C1=O)C(=O)C(OC)=CC3=O (stereo not drawn) | 0.42 | 0.908 µM (active) | 0.822 µM (active) | 0.361 µM (active) | 0.386 µM (active) | 0.906 µM (active) | 0.792 µM (active) | 0.828 µM (active) | 0.681 µM (active) | 0.468 µM (active) | 0.276 µM (active) | 1.03 µM (active) | 0.673 µM (active) | 1.01 µM (active) | 0.783 µM (active) | 0.561 µM (active) | 1.87 µM (inactive) |  | 0.478 µM (active) | 0.807 µM (active)
CC(=O)N[C@H]1CCCC[C@@H]1OC(C)=O | > 100 | > 100 µM (inactive) | > 100 µM (inactive) | > 100 µM (inactive) | > 100 µM (inactive) | > 100 µM (inactive) | > 100 µM (inactive) | > 100 µM (inactive) | > 100 µM (inactive) | > 100 µM (inactive) | > 100 µM (inactive) | > 100 µM (inactive) | > 100 µM (inactive) | > 100 µM (inactive) | > 100 µM (inactive) | > 100 µM (inactive) | > 100 µM (inactive) | > 100 µM (inactive) | > 100 µM (inactive) | 
CC(C)C[C@H](NC(=O)[C@H](Cc1cccc2ccccc12)NS(=O)(=O)c1cccc2cccnc12)B(O)O | 0.227 | < 0.01 µM (active) | 0.0445 µM (active) | 0.372 µM (active) | < 0.01 µM (active) |  | < 0.0149 µM (active) | < 0.0226 µM (active) | < 0.0176 µM (active) | < 0.01 µM (active) | < 0.0243 µM (active) | < 0.0208 µM (active) | < 0.015 µM (active) | < 0.0122 µM (active) | 0.0103 µM (active) | < 0.0133 µM (active) | 0.000208 µM (active) | < 0.0285 µM (active) | < 0.01 µM (active) | 

— ChEMBL document CHEMBL1201862, “PubChem BioAssay data set” (2004)
